The nature of experiment [1]: HepG2 cell cytotoxicity, dose response, cytotoxicity control, cherry-picks, set 5 (AID 1053118). The format is functional, cell-based.
Another experiment has as its target Beta Lactamase (Pseudomonas aeruginosa, UniProt Q932Y6). Put plainly: beta-lactamase reporter inhibitor potency, dose response, artefact control for TLR9-MyD88 binding inhibitor project, BLA reporter cells, FRET fluorescence (AID 588341).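 Also: cell based assay in CHO-K1 cells stably expressing beta-lactamase.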 Format: cell-based.
A short description of experiment [2]: HEK293 cell cytotoxicity, dose response, cytotoxicity control, cherry-picks, set 5 (AID 1053117). Format: functional, cell-based.
A further experiment has as its target T1, Protein RecA (Mycobacterium tuberculosis, UniProt P9WHJ3).
T1 sequence (P9WHJ3 whole entry): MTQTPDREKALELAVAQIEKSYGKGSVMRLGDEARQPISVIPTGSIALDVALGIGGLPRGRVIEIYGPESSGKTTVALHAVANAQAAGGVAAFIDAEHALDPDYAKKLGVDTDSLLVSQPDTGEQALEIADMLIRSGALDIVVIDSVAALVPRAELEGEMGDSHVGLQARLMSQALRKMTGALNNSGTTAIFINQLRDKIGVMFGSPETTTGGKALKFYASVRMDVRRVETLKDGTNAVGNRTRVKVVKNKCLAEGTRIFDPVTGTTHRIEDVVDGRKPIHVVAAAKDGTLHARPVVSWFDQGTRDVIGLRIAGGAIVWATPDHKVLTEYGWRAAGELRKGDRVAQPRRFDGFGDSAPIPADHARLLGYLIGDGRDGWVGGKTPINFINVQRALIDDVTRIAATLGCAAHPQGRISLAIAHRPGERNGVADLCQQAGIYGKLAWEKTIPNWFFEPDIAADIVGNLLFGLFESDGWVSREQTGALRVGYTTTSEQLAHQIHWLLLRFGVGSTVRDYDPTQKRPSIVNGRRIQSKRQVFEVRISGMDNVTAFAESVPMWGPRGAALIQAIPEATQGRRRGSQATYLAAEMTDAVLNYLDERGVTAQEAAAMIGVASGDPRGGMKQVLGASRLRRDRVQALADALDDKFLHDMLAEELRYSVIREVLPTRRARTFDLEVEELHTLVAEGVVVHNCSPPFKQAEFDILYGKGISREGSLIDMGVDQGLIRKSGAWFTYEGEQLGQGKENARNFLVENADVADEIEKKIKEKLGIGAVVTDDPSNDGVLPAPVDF
Kind of experiment: Fluorescence Cell-Free Homogeneous Dose Retest to Identify Inhibitors of RecA-Intein Splicing Activity. [Related pubchem assays (depositor defined):AID2097, AID2223, AID489010, AID492950]. Format: functional.

For another experiment, the target named is Large T antigen (Simian virus 40, UniProt P03070). Format: functional, Betapolyomavirus macacae.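 Also: Confirmatory-stage PubChem screen for compounds that inhibit SV40 T antigen.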
Experiment [3] concerns the target T2, Type-1 angiotensin II receptor (Homo sapiens, UniProt P30556).
T2 sequence (P30556 whole entry): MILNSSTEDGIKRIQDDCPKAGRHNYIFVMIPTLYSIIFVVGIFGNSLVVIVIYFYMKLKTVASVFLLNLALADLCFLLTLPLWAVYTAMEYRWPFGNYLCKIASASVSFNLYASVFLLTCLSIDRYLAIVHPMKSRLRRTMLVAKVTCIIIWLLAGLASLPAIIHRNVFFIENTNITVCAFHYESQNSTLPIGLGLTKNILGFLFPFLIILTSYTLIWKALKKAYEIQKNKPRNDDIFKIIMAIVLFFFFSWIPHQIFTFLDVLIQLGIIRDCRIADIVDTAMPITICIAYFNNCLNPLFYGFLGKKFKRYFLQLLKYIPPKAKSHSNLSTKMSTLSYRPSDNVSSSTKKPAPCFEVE
Kind of experiment: AT1 receptor antagonists, dose response, selectivity assay for APJ receptor antagonist project, cell-based, uHTS hits (AID 463214).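 Also: antagonist potency against angiotensin II stimulated AT1 response.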 Format: functional.

A short description of experiment [4]: THP-1 cell cytotoxicity, dose response, cytotoxicity control for non-replicating M. tuberculosis project (AID 489025). Format: functional.
A short description of experiment [5]: inhibitors of fibronectin matrix deposition, dose response, AH1F cells, Alexa488-FN fluorescence, cherry-picks (AID 1035475). The format is functional, cell-based.
Experiment [6] deals with T3, Heat shock factor protein 1 (Mus musculus, UniProt P38532).
T3 sequence (P38532 whole entry): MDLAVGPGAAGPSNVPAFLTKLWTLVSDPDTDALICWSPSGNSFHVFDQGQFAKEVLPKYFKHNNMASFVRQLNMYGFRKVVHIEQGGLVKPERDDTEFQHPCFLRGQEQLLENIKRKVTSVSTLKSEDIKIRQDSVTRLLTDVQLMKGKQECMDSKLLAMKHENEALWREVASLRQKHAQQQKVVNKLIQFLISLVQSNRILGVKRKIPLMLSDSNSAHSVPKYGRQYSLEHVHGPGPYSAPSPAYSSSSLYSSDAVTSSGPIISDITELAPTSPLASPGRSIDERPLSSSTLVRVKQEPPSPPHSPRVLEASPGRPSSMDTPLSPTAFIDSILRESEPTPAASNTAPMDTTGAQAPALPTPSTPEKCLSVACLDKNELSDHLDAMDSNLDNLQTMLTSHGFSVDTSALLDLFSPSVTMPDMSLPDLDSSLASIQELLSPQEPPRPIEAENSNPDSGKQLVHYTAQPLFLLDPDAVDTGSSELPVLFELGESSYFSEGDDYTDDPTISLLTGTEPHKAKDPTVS
Put plainly: inhibition of MG132-induced HSE-luciferase signal, confirmation, cell-based, NIH3T3, luminescence, dose retest (AID 2382).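 Also: NIH3T3 fibroblasts with HSF1-driven luciferase reporter stressed by proteasome inhibitor MG132; luminescence from HSF1-driven luciferase expression after 8 hours of MG132 stress.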 The format is functional.

The nature of experiment [7]: non-specific cell cytotoxicity, dose response, cytotoxicity control for PAX8 inhibitor project, plate reader, dry powder samples (AID 743021). The format is functional, cell-based.
A short description of experiment [8]: cytotoxicity toward NIH3T3 fibroblasts, dose response, counter-screen, cell-based, ATP luminescence, mouse fibroblasts (AID 2010).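 Also: cells exposed to compound for about 90 hours before reading.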 Format: functional. Background: A counterscreen serves to expose hits that act by an unwanted route or on another target.
A short description of experiment [9]: nonselective inhibitors of cellular cAMP signaling, dose response, counter-screen for MC4R biased antagonist project, cell-based, TR-FRET cAMP detection (AID 602305).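 Also: U2OS cells stimulated with forskolin near its EC80 as the cAMP inducer; potency is for inhibition of forskolin-stimulated cAMP signaling.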 Format: functional.
Experiment [10] is described as follows: inhibitors of intracellular T. cruzi replication, confirmation, NIH3T3 host cells, beta-gal luminescence (AID 2044).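 Also: intracellular parasites grown in NIH/3T3 mouse fibroblasts as host cells; luminescent beta-galactosidase reporter signal from transgenic T. cruzi replicating inside host cells; inhibitors lower the luminescence signal.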 The format is functional, cell-based.
For a further experiment, the target named is Melanocortin receptor 4 (Homo sapiens, UniProt P32245). Put plainly: MC4R antagonist potency on cAMP, dose response, cell-based, TR-FRET, biased antagonists (AID 602298).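 Also: antagonist potency against agonist-stimulated cAMP production.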 Format: functional. In general terms: TR-FRET usually uses a lanthanide donor and a delayed reading to cut background.
In experiment [11] the target is T4, Replicative DNA helicase DnaB (Mycobacterium tuberculosis, UniProt P9WMR3).
T4 sequence (P9WMR3 whole entry): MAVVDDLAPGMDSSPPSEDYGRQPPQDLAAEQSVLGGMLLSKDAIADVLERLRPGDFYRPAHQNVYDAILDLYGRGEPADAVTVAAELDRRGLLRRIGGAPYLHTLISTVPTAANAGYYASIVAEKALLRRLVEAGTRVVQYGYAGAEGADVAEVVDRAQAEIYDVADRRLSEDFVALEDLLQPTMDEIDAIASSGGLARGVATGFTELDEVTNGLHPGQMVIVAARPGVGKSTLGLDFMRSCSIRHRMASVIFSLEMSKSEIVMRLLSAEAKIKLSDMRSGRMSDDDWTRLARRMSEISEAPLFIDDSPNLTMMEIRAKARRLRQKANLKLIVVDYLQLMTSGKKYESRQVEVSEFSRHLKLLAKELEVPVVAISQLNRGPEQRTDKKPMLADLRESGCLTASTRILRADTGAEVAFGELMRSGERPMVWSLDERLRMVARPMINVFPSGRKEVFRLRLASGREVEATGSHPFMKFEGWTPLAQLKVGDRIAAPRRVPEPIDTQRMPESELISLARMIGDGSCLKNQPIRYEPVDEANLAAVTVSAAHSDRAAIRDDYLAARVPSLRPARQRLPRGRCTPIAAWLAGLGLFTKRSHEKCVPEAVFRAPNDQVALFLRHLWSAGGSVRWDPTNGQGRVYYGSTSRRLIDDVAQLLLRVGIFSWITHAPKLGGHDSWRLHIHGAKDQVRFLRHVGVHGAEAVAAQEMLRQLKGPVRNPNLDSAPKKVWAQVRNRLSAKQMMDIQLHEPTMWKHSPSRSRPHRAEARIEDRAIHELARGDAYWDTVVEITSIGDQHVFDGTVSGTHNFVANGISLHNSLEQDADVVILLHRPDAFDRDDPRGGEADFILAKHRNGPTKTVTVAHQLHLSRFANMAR
Put plainly: DnaB intein splicing inhibitors, dose response, biochemical, cell-free fluorescence (AID 449749). The format is functional.

In another experiment the target is Paired box protein Pax-8 (Homo sapiens, UniProt Q06710). Put plainly: inhibitors of PAX8-driven TPO luciferase reporter, dose response, RMG-I cells, cherry-pick (AID 687027).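 Also: luciferase reporter driven by Pax8 target thyroperoxidase promoter measured by SteadyGlo luminescence.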 The format is functional, cell-based. Background: A reporter such as luciferase makes a cellular process visible.
For a further experiment, the system named is INS1. Put plainly: beta cell apoptosis inhibitors, cytokine rescue, dose response, luminescence, retest (AID 449756).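 Also: cell death triggered by IL-1 beta plus TNF-alpha plus IFN-gamma mixture; protective hits raise ATP signal compared with cytokine alone wells.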 The following applies: Rattus norvegicus. Format: functional, cell-based.
Another experiment deals with Beta-galactosidase (Escherichia coli, UniProt Q8VNN2). Kind of experiment: PubChem AID 485352. The format is functional.
The test system of a further experiment is CHO. Kind of experiment: cytotoxicity in TLR9-MyD88 CHO cells, dose response, cytotoxicity control for TLR9-MyD88 binding inhibitor project, cell-based, luminescence (AID 588339).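 Also: CHO cells stably coexpressing TLR9 and MyD88 fusions from primary screen; compound exposure lasted 48 hours before viability readout.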 The format is functional, hamster. The following applies: Cricetulus griseus.

Structures are written as SMILES. The source made the active and inactive calls. Some results are limits rather than exact numbers.

Here are results for one molecule from ChEMBL document CHEMBL1201862, “PubChem BioAssay data set” (2004).

One may read the AC50 as the concentration at which the activity in the assay is half-maximal. As usually defined, the IC50 is the concentration that inhibits the measured activity by half. Broadly, the EC50 is the concentration needed to bring the measured effect to its halfway point. For orientation: CC50 means the concentration that lowers cell viability or growth by half.

Paired box protein Pax-8, sequence (Q06710 whole entry): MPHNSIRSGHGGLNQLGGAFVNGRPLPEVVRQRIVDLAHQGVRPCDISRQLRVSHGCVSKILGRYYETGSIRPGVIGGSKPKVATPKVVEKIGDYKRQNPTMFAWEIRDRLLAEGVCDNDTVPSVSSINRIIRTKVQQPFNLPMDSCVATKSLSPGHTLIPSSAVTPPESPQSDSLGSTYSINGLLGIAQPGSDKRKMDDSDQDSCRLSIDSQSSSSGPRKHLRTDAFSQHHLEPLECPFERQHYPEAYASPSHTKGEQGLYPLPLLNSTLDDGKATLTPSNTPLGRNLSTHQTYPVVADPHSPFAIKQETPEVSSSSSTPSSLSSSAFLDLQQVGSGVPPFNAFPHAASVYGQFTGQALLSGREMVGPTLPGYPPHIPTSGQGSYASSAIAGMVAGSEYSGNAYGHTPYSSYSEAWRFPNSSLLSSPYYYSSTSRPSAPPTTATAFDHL
Beta Lactamase, sequence (Q932Y6 whole entry): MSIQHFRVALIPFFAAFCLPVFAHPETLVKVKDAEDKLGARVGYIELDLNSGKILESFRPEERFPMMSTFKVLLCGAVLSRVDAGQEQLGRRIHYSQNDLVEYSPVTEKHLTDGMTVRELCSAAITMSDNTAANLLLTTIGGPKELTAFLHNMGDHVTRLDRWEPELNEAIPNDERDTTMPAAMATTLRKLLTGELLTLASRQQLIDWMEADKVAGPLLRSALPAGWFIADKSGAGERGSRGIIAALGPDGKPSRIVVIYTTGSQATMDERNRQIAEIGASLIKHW
Large T antigen, sequence (P03070 whole entry): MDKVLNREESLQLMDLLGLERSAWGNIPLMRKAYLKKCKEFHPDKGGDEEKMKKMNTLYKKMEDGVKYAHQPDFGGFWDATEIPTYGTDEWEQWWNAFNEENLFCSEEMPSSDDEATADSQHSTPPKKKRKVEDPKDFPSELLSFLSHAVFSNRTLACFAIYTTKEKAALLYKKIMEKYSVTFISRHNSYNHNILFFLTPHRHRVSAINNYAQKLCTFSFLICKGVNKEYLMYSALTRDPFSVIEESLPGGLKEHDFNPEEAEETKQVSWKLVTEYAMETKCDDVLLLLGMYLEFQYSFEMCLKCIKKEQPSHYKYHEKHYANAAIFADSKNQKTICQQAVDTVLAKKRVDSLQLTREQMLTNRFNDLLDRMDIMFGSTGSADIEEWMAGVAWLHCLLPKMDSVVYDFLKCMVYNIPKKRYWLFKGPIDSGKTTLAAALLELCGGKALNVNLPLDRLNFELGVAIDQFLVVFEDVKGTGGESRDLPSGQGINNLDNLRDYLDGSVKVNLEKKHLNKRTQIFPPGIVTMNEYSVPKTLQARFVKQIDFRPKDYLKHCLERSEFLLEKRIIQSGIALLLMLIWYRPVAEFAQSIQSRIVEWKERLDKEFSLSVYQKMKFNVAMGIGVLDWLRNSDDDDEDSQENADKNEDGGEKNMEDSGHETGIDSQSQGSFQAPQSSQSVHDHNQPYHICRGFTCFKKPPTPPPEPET
Beta-galactosidase, sequence (Q8VNN2 whole entry, the tested form may be a part): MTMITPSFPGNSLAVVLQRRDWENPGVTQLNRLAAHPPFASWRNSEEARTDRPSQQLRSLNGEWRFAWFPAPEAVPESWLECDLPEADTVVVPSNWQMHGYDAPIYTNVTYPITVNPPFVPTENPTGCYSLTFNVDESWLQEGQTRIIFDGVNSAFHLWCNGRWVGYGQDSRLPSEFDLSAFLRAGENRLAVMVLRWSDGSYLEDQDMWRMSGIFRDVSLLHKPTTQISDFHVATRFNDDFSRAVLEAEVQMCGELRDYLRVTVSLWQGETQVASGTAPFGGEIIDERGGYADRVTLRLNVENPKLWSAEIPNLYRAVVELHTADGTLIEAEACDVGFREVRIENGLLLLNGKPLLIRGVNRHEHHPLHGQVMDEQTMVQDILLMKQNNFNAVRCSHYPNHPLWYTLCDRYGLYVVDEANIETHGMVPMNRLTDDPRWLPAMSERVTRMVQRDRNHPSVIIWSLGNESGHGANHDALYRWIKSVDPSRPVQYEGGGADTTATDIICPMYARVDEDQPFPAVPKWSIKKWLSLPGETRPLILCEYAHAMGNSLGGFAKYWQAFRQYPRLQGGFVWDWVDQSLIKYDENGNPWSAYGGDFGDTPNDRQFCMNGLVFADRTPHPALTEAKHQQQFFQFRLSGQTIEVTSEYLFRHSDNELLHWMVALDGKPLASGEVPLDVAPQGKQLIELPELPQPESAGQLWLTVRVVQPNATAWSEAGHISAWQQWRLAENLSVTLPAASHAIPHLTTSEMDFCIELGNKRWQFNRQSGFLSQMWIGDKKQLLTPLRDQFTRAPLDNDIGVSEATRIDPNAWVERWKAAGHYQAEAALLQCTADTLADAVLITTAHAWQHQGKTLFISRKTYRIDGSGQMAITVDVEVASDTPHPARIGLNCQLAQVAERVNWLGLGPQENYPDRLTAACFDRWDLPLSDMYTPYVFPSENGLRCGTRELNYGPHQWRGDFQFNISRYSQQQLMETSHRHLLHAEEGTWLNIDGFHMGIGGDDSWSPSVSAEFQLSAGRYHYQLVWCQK
Melanocortin receptor 4, sequence (P32245 whole entry): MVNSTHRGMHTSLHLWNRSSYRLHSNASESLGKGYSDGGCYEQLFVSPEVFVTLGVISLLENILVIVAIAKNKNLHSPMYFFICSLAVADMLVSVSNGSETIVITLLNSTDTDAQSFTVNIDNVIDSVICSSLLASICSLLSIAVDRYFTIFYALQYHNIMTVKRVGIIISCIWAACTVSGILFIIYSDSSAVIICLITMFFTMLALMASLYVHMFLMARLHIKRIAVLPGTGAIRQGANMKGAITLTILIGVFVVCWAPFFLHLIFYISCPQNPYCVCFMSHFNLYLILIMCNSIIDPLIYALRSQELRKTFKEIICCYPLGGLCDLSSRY

With `CCS(=O)(=O)c1ncc(Cl)c(C(=O)Nc2ccc(S(=O)(=O)N3CCC(C)CC3)cc2)n1`, the AC50 is 7.65 µM (active) in experiment [1]; 9.52 µM (active) in experiment [2]; 5.39 µM (active) in experiment [5]; 29.3 µM (active) in experiment [7]; 1.13 µM (active) in [11]; 3.45 µM (active) on Paired box protein Pax-8. Moreover, in the experiment with INS1, the AC50 was 4.66 µM (active). Besides, the IC50 at Beta Lactamase is 8.61 µM (active); at Large T antigen, 52.5 µM (active); in [3] it was 6.11 µM (active); in experiment [9], > 64.6 µM (inactive); on Melanocortin receptor 4, > 64.6 µM (inactive); with CHO it was 1.81 µM (active). Besides, the EC50 at Protein RecA was 889 nM (active); in experiment [6], 4.04 µM (active); in [8], 4.05 µM (active); in experiment [10], 1.72 µM (active); on Beta-galactosidase, > 40 µM (inactive). Besides, the CC50 in experiment [4] is 34.7 µM (active).
